{"source": "ChEMBL document CHEMBL1201862", "about": "“PubChem BioAssay data set” (2004)", "key": {"[1]": {"molecular_target": "T1, Hexokinase (Trypanosoma brucei, UniProt Q38C41)", "T1 sequence (Q38C41 whole entry)": "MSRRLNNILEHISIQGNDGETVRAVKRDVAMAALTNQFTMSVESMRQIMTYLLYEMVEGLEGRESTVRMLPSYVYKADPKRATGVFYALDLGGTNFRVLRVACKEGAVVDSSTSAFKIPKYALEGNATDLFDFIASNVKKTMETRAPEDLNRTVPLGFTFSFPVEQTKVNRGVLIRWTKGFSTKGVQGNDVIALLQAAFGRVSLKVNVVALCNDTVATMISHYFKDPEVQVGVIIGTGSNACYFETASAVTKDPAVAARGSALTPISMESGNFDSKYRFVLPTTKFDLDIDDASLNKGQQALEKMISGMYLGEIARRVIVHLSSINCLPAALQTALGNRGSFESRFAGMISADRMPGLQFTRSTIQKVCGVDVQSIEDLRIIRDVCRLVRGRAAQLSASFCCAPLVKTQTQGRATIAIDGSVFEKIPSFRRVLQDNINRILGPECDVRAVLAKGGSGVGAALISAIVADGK", "assay": "Confirmation assay for inhibitors of Trypanosoma brucei hexokinase 1-Analogue-first series. [Related pubchem assays (depositor defined):AID1430, AID1632, AID2516, AID2560, AID2579, AID2600, AID449725, AID492951]", "format": "functional"}, "[2]": {"molecular_target": "T2, Beta Lactamase (Pseudomonas aeruginosa, UniProt Q932Y6)", "T2 sequence (Q932Y6 whole entry)": "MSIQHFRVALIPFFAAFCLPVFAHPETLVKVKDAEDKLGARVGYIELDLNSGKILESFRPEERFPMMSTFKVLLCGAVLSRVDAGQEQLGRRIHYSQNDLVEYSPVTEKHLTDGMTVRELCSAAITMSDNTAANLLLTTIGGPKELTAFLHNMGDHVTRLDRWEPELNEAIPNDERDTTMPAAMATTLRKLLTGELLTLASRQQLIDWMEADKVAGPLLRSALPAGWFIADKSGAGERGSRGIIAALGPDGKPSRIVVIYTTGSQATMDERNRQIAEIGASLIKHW", "assay": "beta-lactamase reporter inhibitor potency, dose response, artefact control for NOD2-RIPK2 interaction inhibitor project, BLA reporter cells, FRET fluorescence (AID 651552)", "format": "functional, cell-based"}, "[3]": {"molecular_target": "DNA dC->dU-editing enzyme APOBEC-3G (Homo sapiens, UniProt Q9HC16)", "sequence (Q9HC16 whole entry)": "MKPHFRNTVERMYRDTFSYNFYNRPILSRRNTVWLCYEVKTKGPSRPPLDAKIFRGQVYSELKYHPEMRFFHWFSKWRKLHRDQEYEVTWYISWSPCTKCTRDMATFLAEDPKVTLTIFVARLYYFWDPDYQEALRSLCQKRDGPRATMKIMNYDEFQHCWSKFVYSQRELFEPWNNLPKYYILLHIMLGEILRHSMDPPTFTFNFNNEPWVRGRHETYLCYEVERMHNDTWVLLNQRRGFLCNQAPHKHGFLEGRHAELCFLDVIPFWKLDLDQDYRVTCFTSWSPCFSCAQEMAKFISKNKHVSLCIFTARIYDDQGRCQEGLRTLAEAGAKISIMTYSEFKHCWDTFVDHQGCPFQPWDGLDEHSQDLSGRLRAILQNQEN", "assay": "Dose Response confirmation of small molecule APOBEC3G DNA Deaminase Inhibitors via a fluorescence-based single-stranded DNA deaminase assay. [Related pubchem assays (depositor defined):AID493012, AID493028]", "format": "functional"}, "[4]": {"molecular_target": "T3, Phosphomannomutase 2 (Homo sapiens, UniProt O15305)", "T3 sequence (O15305 whole entry)": "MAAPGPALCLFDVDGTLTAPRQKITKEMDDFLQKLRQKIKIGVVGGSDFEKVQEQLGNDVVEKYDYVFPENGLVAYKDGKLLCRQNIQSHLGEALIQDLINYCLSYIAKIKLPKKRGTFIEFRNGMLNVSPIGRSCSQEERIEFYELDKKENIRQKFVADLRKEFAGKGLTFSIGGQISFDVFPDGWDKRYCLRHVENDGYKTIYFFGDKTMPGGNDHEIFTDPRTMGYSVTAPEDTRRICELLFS", "assay": "Counter screen SAR assay for PMM2 inhibitors via a fluorescence intensity assay. [Related pubchem assays (depositor defined):AID1545, AID1574]"}, "[5]": {"assay": "HeLa cell cytotoxicity, dose response, cytotoxicity control for MgcRacGAP inhibitor project (AID 624300)", "format": "functional"}, "[6]": {"molecular_target": "DNA dC->dU-editing enzyme APOBEC-3A (Homo sapiens, UniProt P31941)", "sequence (P31941 whole entry)": "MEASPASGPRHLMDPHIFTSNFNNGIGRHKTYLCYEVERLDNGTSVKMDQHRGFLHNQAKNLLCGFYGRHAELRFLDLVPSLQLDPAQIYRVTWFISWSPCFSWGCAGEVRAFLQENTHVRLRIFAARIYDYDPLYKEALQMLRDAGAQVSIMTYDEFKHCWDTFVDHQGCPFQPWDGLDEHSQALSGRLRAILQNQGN", "assay": "APOBEC3A DNA deaminase inhibitors, dose response, biochemical (AID 504722)", "format": "functional"}, "[7]": {"molecular_target": "T2, Beta Lactamase", "assay": "beta-lactamase reporter inhibitor potency, dose response, artefact control for TLR9-MyD88 binding inhibitor project, BLA reporter cells, FRET fluorescence (AID 588341);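 note: cell based assay in CHO-K1 cells stably expressing beta-lactamase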", "format": "cell-based"}, "[8]": {"assay": "Fluorescence-based cell-based high throughput dose response assay for inhibitors of the interaction of nucleotide-binding oligomerization domain containing 2 (NOD2) and the receptor-interacting serine-threonine kinase 2 (RIPK2).", "format": "functional", "settings": "Homo sapiens"}, "[9]": {"molecular_target": "T4, Rac GTPase-activating protein 1 (Homo sapiens, UniProt Q9H0H5)", "T4 sequence (Q9H0H5 whole entry)": "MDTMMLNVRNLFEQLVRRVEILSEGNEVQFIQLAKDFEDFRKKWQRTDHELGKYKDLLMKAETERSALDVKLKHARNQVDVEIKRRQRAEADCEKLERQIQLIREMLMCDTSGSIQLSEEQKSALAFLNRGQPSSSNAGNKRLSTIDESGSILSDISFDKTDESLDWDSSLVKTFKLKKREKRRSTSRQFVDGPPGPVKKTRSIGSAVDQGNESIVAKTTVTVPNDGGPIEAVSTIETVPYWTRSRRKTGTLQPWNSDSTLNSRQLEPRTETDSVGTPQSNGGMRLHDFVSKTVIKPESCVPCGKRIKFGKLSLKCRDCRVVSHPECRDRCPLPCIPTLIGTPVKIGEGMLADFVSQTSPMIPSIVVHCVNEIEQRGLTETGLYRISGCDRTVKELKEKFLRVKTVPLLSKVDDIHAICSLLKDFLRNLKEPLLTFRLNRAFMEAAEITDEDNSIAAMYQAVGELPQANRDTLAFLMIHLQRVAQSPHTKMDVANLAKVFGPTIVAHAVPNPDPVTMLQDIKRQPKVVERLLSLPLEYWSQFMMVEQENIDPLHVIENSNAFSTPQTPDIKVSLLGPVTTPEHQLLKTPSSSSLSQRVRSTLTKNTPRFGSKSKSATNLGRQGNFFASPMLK", "assay": "MgcRacGAP GTPase-activating activity inhibitors, confirmation, biochemical, ADP Hunter fluorescence, primary and confirmatory (AID 624330)", "format": "functional"}, "[10]": {"molecular_target": "Phosphoethanolamine/phosphocholine phosphatase (Homo sapiens, UniProt Q8TCT1)", "sequence (Q8TCT1 whole entry)": "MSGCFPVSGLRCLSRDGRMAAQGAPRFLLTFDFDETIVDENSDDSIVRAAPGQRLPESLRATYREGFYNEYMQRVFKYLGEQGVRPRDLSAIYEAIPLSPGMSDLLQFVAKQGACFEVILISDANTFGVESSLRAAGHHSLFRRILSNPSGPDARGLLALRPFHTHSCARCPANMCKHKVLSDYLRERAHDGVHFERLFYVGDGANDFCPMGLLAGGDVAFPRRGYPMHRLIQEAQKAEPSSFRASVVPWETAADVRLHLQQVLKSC", "assay": "SAR assay for compounds that inhibit PHOSPHO1. [Related pubchem assays (depositor defined):AID1545, AID1565, AID1574]"}, "[11]": {"molecular_target": "T5, Alkaline phosphatase, tissue-nonspecific isozyme (Homo sapiens, UniProt P05186)", "T5 sequence (P05186 whole entry)": "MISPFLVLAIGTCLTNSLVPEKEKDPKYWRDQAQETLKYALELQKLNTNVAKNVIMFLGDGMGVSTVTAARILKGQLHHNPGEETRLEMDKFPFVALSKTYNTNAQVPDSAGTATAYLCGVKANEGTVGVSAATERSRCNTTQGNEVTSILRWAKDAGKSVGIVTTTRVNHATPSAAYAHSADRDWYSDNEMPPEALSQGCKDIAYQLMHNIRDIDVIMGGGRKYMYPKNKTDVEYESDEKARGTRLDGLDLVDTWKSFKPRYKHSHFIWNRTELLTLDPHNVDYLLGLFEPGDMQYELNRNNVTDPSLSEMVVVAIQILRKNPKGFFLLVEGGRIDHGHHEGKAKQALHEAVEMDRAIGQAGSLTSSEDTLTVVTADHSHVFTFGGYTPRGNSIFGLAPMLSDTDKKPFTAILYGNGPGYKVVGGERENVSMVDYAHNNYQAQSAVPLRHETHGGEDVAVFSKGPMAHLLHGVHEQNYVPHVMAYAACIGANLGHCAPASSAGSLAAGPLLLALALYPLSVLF", "assay": "human TNAP enzyme inhibitors, SAR follow-up, biochemical, luminescent, dose response (AID 1056)"}, "[12]": {"system": "CHO", "assay": "cytotoxicity in TLR9-MyD88 CHO cells, dose response, cytotoxicity control for TLR9-MyD88 binding inhibitor project, cell-based, luminescence (AID 588339);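 note: CHO cells stably coexpressing TLR9 and MyD88 fusions from primary screen; compound exposure lasted 48 hours before viability readout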", "format": "functional, hamster", "settings": "Cricetulus griseus"}, "[13]": {"molecular_target": "Mitochondrial peptide methionine sulfoxide reductase (Bos taurus, UniProt P54149)", "sequence (P54149 whole entry)": "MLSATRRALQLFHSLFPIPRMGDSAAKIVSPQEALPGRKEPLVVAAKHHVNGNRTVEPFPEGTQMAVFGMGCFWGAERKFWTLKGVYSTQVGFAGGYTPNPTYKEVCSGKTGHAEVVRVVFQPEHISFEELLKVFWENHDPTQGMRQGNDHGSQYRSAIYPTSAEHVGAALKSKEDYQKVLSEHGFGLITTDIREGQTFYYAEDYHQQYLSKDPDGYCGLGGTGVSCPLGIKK", "assay": "Absorbance-based biochemical high throughput dose response assay for activators of Methionine sulfoxide reductase A (MsrA).", "format": "functional"}, "[14]": {"molecular_target": "NACHT, LRR and PYD domains-containing protein 1 (Homo sapiens, UniProt Q9C000)", "sequence (Q9C000 1-1212 limits assumed)": "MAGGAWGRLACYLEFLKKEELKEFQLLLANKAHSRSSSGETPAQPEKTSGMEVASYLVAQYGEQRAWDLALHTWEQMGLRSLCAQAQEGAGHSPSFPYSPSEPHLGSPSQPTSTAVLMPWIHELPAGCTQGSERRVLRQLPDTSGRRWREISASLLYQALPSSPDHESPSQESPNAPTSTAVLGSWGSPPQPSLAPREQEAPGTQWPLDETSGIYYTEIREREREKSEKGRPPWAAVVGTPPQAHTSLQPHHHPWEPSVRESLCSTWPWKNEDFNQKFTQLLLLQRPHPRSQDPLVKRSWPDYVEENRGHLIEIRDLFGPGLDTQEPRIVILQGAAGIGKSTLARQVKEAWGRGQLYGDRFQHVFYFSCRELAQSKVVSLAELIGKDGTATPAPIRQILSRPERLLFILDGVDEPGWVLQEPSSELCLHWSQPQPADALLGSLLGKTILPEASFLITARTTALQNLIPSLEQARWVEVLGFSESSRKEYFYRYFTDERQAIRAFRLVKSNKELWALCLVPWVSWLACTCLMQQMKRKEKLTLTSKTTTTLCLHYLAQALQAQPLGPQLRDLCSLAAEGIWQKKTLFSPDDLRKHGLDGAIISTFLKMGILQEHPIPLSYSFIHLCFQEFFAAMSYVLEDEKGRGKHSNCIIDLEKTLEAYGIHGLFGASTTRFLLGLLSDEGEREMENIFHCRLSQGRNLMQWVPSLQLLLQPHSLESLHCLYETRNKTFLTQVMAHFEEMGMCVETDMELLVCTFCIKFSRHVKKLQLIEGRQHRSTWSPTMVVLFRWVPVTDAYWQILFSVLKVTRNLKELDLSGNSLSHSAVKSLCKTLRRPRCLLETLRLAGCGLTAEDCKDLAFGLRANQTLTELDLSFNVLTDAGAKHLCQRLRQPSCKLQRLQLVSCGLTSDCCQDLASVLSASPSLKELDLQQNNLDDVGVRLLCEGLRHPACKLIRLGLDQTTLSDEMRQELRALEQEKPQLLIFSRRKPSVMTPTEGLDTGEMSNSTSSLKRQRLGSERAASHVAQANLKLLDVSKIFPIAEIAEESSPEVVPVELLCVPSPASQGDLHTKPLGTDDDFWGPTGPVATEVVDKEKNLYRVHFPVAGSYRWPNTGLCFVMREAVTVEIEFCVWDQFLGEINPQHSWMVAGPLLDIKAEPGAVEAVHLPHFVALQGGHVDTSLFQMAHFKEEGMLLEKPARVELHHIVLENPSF", "sequence (Q9C000 1213-1473 limits assumed)": "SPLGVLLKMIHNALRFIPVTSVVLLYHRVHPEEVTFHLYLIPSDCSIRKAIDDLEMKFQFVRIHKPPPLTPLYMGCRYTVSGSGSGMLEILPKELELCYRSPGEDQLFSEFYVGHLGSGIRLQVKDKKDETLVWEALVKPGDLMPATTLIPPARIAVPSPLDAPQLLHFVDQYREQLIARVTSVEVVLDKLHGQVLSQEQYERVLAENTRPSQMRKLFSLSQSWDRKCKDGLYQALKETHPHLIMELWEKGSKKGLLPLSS", "assay": "NALP1 inhibitors in yeast, dose response, luminescent (AID 488860)", "format": "functional"}, "[15]": {"system": "Saccharomyces cerevisiae", "assay": "NALP1 inhibitor project selectivity study, Caspase-1/ASC signal blockade IC50 in S. cerevisiae (AID 488863)", "format": "functional, organism-based"}, "[16]": {"system": "Vero", "assay": "West Nile virus CPE inhibition, SAR follow-up, cell-based, synthesized analogs (AID 2238)", "format": "functional", "settings": "Chlorocebus sabaeus"}, "[17]": {"system": "Vero", "assay": "cytotoxicity of synthesized analogs in Vero 76, SAR follow-up, cytotoxicity control for West Nile virus antiviral project, Vero 76 cells (AID 2414)", "format": "functional", "settings": "Chlorocebus sabaeus"}, "[18]": {"system": "Vero", "assay": "West Nile virus antiviral activity, cell-based, CPE readout (AID 1621)", "format": "functional", "settings": "Chlorocebus sabaeus"}, "[19]": {"system": "Vero", "assay": "West Nile virus cytopathic effect inhibition, cell-based (AID 2419)", "format": "functional", "settings": "Chlorocebus sabaeus"}, "[20]": {"system": "Vero", "assay": "Vero E6 cell cytotoxicity, SAR follow-up, cytotoxicity control for West Nile virus antiviral project, synthesized analogs (AID 2244)", "format": "functional", "settings": "Chlorocebus sabaeus"}, "[21]": {"system": "Vero", "assay": "cytotoxicity of synthesized analogs in Vero cells, SAR follow-up, cytotoxicity control for West Nile virus antiviral project, cell-based, set II (AID 2402)", "format": "functional", "settings": "Chlorocebus sabaeus"}, "[22]": {"molecular_target": "T6, Dual specificity protein phosphatase 3 (Homo sapiens, UniProt P51452)", "T6 sequence (P51452 whole entry)": "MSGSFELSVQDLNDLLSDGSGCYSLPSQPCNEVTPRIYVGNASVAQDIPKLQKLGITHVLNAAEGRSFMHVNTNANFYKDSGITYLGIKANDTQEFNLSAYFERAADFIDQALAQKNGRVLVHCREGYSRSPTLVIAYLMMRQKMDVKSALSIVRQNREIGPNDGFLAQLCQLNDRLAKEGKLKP", "assay": "SAR VHR1 Fluorescent Assay for In Vitro dose response studies. [Related pubchem assays (depositor defined):AID1654, AID1661, AID1878, AID1992, AID2004, AID2070, AID2085]", "format": "functional"}, "[23]": {"molecular_target": "T7, Tyrosine-protein phosphatase non-receptor type 7 (Homo sapiens, UniProt P35236)", "T7 sequence (P35236 whole entry)": "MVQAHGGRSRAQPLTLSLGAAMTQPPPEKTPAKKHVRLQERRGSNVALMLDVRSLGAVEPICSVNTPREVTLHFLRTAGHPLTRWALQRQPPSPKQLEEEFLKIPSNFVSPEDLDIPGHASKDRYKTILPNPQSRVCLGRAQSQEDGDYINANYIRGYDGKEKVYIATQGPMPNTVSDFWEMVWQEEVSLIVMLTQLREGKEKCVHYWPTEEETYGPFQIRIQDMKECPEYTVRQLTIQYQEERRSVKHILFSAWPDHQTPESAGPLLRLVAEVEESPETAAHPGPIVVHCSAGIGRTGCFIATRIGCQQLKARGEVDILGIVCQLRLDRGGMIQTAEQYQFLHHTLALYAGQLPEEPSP", "assay": "redox-dependent HePTP inhibition, mechanism study, biochemical, fluorescence (AID 2068)", "format": "functional"}, "[24]": {"molecular_target": "T6, Dual specificity protein phosphatase 3", "assay": "SAR VHR1 absorbance Assay for In Vitro dose response studies. [Related pubchem assays (depositor defined):AID1654, AID1661, AID1878, AID1992, AID2004]"}, "[25]": {"molecular_target": "Dual specificity protein phosphatase 6 (Rattus norvegicus, UniProt Q64346)", "sequence (Q64346 whole entry)": "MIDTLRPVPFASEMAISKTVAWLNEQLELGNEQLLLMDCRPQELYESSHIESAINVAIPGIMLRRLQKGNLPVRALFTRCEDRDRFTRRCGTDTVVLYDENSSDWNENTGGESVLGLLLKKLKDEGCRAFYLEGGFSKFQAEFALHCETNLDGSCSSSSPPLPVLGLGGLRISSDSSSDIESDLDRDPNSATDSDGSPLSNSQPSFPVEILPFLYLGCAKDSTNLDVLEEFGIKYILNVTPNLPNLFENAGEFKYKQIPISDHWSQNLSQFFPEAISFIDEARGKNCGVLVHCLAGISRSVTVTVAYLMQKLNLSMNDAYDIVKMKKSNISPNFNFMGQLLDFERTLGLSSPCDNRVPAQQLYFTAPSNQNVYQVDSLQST", "format": "functional"}, "[26]": {"molecular_target": "T6, Dual specificity protein phosphatase 3", "assay": "SAR VHR1 Fluorescent Assay for In Vitro dose response studies Set 2. [Related pubchem assays (depositor defined):AID1654, AID1661, AID1878]", "format": "functional"}, "[27]": {"molecular_target": "G-protein coupled receptor 55 (Homo sapiens, UniProt Q9Y2T6)", "sequence (Q9Y2T6 whole entry)": "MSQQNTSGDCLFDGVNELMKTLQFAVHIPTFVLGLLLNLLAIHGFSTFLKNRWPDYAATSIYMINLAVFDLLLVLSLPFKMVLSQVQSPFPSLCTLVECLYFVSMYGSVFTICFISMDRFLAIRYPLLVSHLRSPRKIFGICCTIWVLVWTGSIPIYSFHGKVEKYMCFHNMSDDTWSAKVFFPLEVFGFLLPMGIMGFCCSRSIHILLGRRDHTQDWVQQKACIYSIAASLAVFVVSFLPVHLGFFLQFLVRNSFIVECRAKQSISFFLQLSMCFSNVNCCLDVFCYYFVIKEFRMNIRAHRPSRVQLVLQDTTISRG", "assay": "GPR55 agonists via beta-arrestin recruitment, primary screen, imaging, U2OS cells, beta-arrestin-GFP redistribution (AID 1961)", "format": "functional"}}, "note": "Activity calls are given as the source filed them."}
{"smiles": "O=c1c2cc(F)ccc2sn1-c1ccccc1", "values": [{"measurement": "IC50", "setting": "[1]", "value": "1.03 µM (active)"}, {"measurement": "IC50", "setting": "[2]", "value": "23.7 µM (inactive)"}, {"measurement": "IC50", "setting": "[3]", "value": "8.82 µM (active)"}, {"measurement": "IC50", "setting": "[4]", "value": "88.3 µM (active)"}, {"measurement": "CC50", "setting": "[5]", "value": "100 µM (active)"}, {"measurement": "IC50", "setting": "[6]", "value": "> 100 µM (inactive)"}, {"measurement": "IC50", "setting": "[7]", "value": "23 µM (inactive)"}, {"measurement": "IC50", "setting": "[8]", "value": "4.59 µM (active)"}, {"measurement": "IC50", "setting": "[9]", "value": "35.5 µM (active)"}, {"measurement": "IC50", "setting": "[10]", "value": "0.792 µM (active)"}, {"measurement": "IC50", "setting": "[11]", "value": "> 100 µM (inactive)"}, {"measurement": "IC50", "setting": "[12]", "value": "5.8 µM (active)"}, {"measurement": "EC50", "setting": "[13]", "value": "> 104 µM (inactive)"}]}
{"smiles": "COC(=O)c1sccc1NC(=O)c1csc(C)c1", "values": [{"measurement": "IC50", "setting": "[14]", "value": "15.9 µM (active)"}, {"measurement": "IC50", "setting": "[15]", "value": "60.4 µM (active)"}]}
{"smiles": "O=C(CSc1nc2ccccc2c(=O)n1-c1ccc(F)cc1F)Nc1ccc2c(c1)CCC2", "values": [{"measurement": "IC50", "setting": "[16]", "value": "45 µM (active)"}, {"measurement": "CC50", "setting": "[17]", "value": "> 16.7 µM (active)"}, {"measurement": "IC50", "setting": "[18]", "value": "11.8 µM (active)"}, {"measurement": "IC50", "setting": "[19]", "value": "173 µM (active)"}, {"measurement": "CC50", "setting": "[20]", "value": "> 80 µM (active)"}, {"measurement": "CC50", "setting": "[21]", "value": "> 200 µM (active)"}]}
{"smiles": "CN(C)S(=O)(=O)c1cc(C(=O)NC2CCSc3ccccc32)ccc1Cl", "note": "(configuration not stated)", "values": [{"measurement": "IC50", "setting": "[22]", "value": "> 100 µM (inactive)"}, {"measurement": "IC50", "setting": "[23]", "value": "> 100 µM (inactive)"}, {"measurement": "IC50", "setting": "[24]", "value": "> 100 µM (inactive)"}, {"measurement": "IC50", "setting": "[25]", "value": "> 100 µM (inactive)"}, {"measurement": "IC50", "setting": "[26]", "value": "> 100 µM (inactive)"}]}
{"smiles": "O=C(O)c1cccc(CSc2nnc(-c3ccc(Cl)cc3Cl)[nH]2)c1", "values": [{"measurement": "EC50", "setting": "[27]", "value": "6.41 µM (active)"}]}
